Measured values reported in patent US20260042763A1, “PE[…] POSITIVE […] THE TREATMENT OF IRRITABLE BOWEL SYNDROME AND OTHER AILMENTS OF THE PERIPHERAL NERVOUS SYSTEM” (The Johns Hopkins University, priority 2022, published 2026).
pEC50: −log10 of the molar value. Where two headings read alike, the source gives them in different places.

Target: T1, human isoforms of GABAA (α3ß2γ2) receptors (Homo sapiens, UniProt P18507+P34903)
T1 construct: expressed in transfected cells
Test: Potentiation of GABA-evoked currents at GABAA (α3β2γ2) receptors, automated patch-clamp (QPatch), Example B1
Assay type: cell-based
Details: for Emax: Emax of potentiation, read-out: Max %
Procedure: The ability of compounds exemplified above to potentiate the effect of GABA on GABAA receptors (α3β2γ2) was determined using one or more of the methods described below.
Ltk cells stably expressing the human isoforms of GABAA (α3ß2γ2) receptors were used together with submaximal GABA concentrations to investigate the modulatory effects of the test items. Cells were incubated at 37° C. in a humidified atmosphere with 5% CO2 (rel. humidity about 95%). The cells were continuously maintained in and passaged in sterile culture flasks containing a 1:1 mixture of Dulbecco's modified eagle medium and nutrient mixture D-MEM/F-12 (1×, liquid, with L-Glutamine), supplemented with 10% fetal bovine serum and 1.0% Penicillin/Streptomycin solution. The complete medium as indicated above was supplemented with neomycin. In general, cells were passaged at a confluence of about 80 to 90%. For electrophysiological measurements cells were harvested at a confluence of about 80 to 90% from sterile culture flasks containing culture complete medium. Cells were transferred as suspension in PBS to the QPatch 16X or QPatch HTX system to the centrifuge/washer directly. Expression of GABA receptor was induced by adding Dexamethasone to the cells for 24 to 48 h before experimentation.
Modulatory effects of the compounds of this disclosure were investigated using cells stably transfected with GABA-activated channels of the GABAA (α3ß2γ2) subtype together with submaximal GABA concentrations. Expression of GABA receptor were induced by adding Dexamethasone to the cells for 24 to 48 h before experimentation. In general, cells were passaged at a confluence of about 80 to 90%. For electrophysiological measurements cells were harvested at a confluence of about 80 to 90% from sterile culture flasks containing culture complete medium. Cells were transferred as suspension in PBS to the QPatch 16X or QPatch HTX system to the centrifuge/washer directly. Cells were incubated at 37° C. in a humidified atmosphere with 5% CO2 (rel. humidity about 95%). The cells were continuously maintained in and passaged in sterile culture flasks containing a 1:1 mixture of Dulbecco's modified eagle medium and nutrient mixture D-MEM/F-12 (1×, liquid, with L-Glutamine), supplemented with 10% foetal bovine serum and 1.0% Penicillin/Streptomycin solution and neomycin. The 1× bath solution was made at least every 5 days out of a sterile 10× bath solution, which had been prepared prior to the experimental start of the present study and stored at 1° C. to 9° C. The final bath solution included Sodium Chloride 137 mM, Potassium Chloride 4 mM, Calcium Chloride 1.8 mM, Magnesium Chloride 1 mM, HEPES 10 mM, D-Glucose 10 mM, pH (NaOH) 7.4. The 1× intracellular solution was thawed every day and includes Potassium Chloride 130 mM, Magnesium Chloride 1 mM, Mg-ATP 5 mM, HEPES 10 mM, EGTA 5 Mm, pH (KOH) 7.2. Automated patch-clamping: Cells were transferred as suspension in serum-free medium to the QPatch HTX system and kept in the cell storage tank during experiments. All solutions applied to cells including the intracellular solution were maintained at room temperature (19° C. to 30° C.). After formation of a Gigaohm seal between the patch electrodes and transfected individual Ltk cells were ruptured to assure electrical access to the cell interior (whole-cell patch-configuration). Inward currents were measured upon application of 2.0 μM GABA to patch-clamped cells for 4 s. During the entire experiment the cells were voltage-clamped at a holding potential of −80 mV. For the analysis of test items, GABAA receptors were stimulated by 2.0 μM GABA and test item combinations described below. Thirty-second prewash steps with test items was performed in between two agonist applications. […]

[1] = Ltk cells expressing GABAA α3β2γ2, 2.0 μM GABA, whole-cell, holding potential −80 mV

T1 sequence (P34903 29-492): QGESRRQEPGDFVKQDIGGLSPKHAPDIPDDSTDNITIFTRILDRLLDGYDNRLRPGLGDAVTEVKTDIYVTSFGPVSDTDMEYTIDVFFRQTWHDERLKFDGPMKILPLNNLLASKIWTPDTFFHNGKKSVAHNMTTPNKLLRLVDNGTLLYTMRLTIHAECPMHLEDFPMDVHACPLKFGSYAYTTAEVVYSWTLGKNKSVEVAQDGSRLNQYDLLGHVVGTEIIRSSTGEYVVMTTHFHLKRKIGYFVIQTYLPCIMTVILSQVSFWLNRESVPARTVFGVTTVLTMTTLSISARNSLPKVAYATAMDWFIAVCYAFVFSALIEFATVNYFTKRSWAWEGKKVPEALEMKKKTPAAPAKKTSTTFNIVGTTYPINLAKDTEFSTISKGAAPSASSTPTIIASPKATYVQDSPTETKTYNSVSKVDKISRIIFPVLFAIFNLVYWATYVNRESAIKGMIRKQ
T1 sequence (P47870 25-512 partner limits assumed): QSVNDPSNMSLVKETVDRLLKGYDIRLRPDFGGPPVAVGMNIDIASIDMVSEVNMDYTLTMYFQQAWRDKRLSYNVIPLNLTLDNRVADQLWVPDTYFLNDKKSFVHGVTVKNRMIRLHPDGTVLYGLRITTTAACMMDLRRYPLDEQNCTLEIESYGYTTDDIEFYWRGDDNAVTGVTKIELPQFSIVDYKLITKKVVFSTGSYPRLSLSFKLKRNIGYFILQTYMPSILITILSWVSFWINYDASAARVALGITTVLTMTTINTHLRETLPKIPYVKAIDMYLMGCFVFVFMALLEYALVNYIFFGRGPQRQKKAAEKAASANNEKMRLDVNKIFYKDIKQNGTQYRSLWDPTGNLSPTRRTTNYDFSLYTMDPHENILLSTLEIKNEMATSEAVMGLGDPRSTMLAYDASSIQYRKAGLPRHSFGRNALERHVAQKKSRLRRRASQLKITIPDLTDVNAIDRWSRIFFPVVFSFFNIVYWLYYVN
T1 sequence (P18507 40-475): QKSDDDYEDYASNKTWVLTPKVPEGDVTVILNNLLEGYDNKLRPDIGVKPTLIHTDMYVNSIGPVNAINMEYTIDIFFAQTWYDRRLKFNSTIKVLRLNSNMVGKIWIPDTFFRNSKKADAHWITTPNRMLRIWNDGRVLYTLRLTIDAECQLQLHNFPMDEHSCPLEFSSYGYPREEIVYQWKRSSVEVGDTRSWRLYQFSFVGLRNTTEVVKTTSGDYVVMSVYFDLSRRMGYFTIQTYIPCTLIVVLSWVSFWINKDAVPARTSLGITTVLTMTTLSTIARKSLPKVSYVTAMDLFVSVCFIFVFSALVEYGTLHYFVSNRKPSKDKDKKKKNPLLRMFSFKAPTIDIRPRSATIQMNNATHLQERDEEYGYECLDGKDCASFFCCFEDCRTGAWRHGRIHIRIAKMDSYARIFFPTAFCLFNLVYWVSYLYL

| Compound | pEC50 | Emax [1] | pEC50 (Ltk cells expressing GABAA α3β2γ2, 2.0 μM GABA, whole-cell, holding potential −80 mV, read-out: EC50) |
| --- | --- | --- | --- |
| O=C(O)c1cn2c(n1)CN=C(c1ccccc1F)c1cc(F)ccc1-2 [Compound 221, 8-fluoro-6-(2-fluorophenyl)-4H-imidazo[1,2-a][1,4]benzodiazepine-2-carboxylic acid] | 7.00 to 7.30 | 50 to 100% | – |
| COc1cc2c(cc1Cl)C(c1ccccc1F)=NCc1nc(C(=O)O)cn1-2 [Compound 205, 8-chloro-6-(2-fluorophenyl)-9-methoxy-4H-imidazo[1,2-a][1,4]benzodiazepine-2-carboxylic acid] | > 7.30 | > 100% | – |
| O=C(O)c1cn2c(n1)CN=C(c1ccccc1F)c1cc(Cl)cc(F)c1-2 [Compound 203, 12-Chloro-14-fluoro-9-(2-fluorophenyl)-2,5,8-triazatricyclo[8.4.0.0^2,6] tetradeca-1 (10),3,5,8,11,13-hexaene-4-carboxylic acid] | 7.00 to 7.30 | 50 to 100% | – |
| NC(=O)C(NCc1ccccc1)c1cn2c(n1)CN=C(c1ccccc1F)c1cc(Cl)ccc1-2 (centres unmarked) [Compound 232, 2-(Benzylamino)-2-[12-chloro-9-(2-fluorophenyl)-2,5,8-triazatricyclo[8.4.0.0^2,6]tetradeca-1 (10),3,5,8,11,13-hexaen-4-yl]acetamide] | 7.00 to 7.30 | 50 to 100% | – |
| CCc1c(C(=O)O)nc2n1-c1ccc(Cl)cc1C(c1ccccc1F)=NC2 [Compound 217, 8-chloro-1-ethyl-6-(2-fluorophenyl)-4H-imidazo[1,2-a][1,4]benzodiazepine-2-carboxylic acid] | > 7.30 | > 100% | – |
| CN(C)C(=O)c1cn2c(n1)CN=C(c1ccccc1F)c1cc(Cl)ccc1-2 [Compound 241, 8-chloro-6-(2-fluorophenyl)-N,N-dimethyl-4H-imidazo[1,2-a][1,4]benzodiazepine-2-carboxamide] | > 7.30 | > 100% | – |
| O=C(O)c1nc2n(c1CN1CCC1)-c1ccc(Cl)cc1C(c1ccccc1F)=NC2 [Compound 243, 1-(azetidin-1-ylmethyl)-8-chloro-6-(2-fluorophenyl)-4H-benzo[f]imidazo[1,2-a][1,4]diazepine-2-carboxylic acid] | < 7.00 | > 100% | – |
| NCCNC(=O)c1cn2c(n1)CN=C(c1ccccc1F)c1cc(Cl)ccc1-2 [Compound 210, N-(2-aminoethyl)-8-chloro-6-(2-fluorophenyl)-4H-imidazo[1,2-a][1,4]benzodiazepine-2-carboxamide] | > 7.30 | > 100% | – |
| CNC(=O)c1cn2c(n1)CN=C(c1ccccc1F)c1cc(Cl)ccc1-2 [Compound 240, 8-chloro-6-(2-fluorophenyl)-N-methyl-4H-imidazo[1,2-a][1,4]benzodiazepine-2-carboxamide] | > 7.30 | > 100% | – |
| NC(=O)c1cn2c(n1)CN=C(c1ccccc1F)c1cc(Cl)ccc1-2 [Compound 238, 8-chloro-6-(2-fluorophenyl)-4H-imidazo[1,2-a][1,4] benzodiazepine-2-carboxamide] | > 7.30 | > 100% | – |
| CN(C)CCNC(=O)c1cn2c(n1)CN=C(c1ccccc1F)c1cc(Cl)ccc1-2 [Compound 228, 8-chloro-N-[2-(dimethylamino)ethyl]-6-(2-fluorophenyl)-4H-imidazo[1,2-a][1,4]benzodiazepine-2-carboxamide] | > 7.30 | 50 to 100% | – |
| O=C(O)c1nc2n(c1Cl)-c1ccc(Cl)cc1C(c1ccccc1F)=NC2 [Compound 235] | > 7.30 | > 100% | – |
| O=C(O)c1cn2c(n1)CN=C(c1ccccc1F)c1cc(Br)ccc1-2 [Compound 207, 8-bromo-6-(2-fluorophenyl)-4H-imidazo[1,2-a][1,4]benzodiazepine-2-carboxylic acid] | > 7.30 | > 100% | – |
| O=C(O)c1cn2c(n1)CN=C(c1ccc(F)cc1F)c1cc(Cl)ccc1-2 [Compound 216, 8-chloro-6-(2,4-difluorophenyl)-4H-imidazo[1,2-a][1,4]benzodiazepine-2-carboxylic acid] | – | < 50% | – |
| O=C(O)c1cn2c(n1)C(O)N=C(c1ccccc1F)c1cc(Cl)ccc1-2 (centres unmarked) [Compound 227, 8-chloro-6-(2-fluorophenyl)-4-hydroxy-4H-benzo[f]imidazo[1,2-a][1,4]diazepine-2-carboxylic acid] | – | 50 to 100% | – |
| CC(C)CC1N=C(c2ccccc2F)c2cc(Cl)ccc2-n2cc(C(=O)O)nc21 (centres unmarked) [Compound 102, 8-chloro-6-(2-fluorophenyl)-4-isobutyl-4H-imidazo[1,2-a][1,4]benzodiazepine-2-carboxylic acid] | – | 50 to 100% | < 7.00 |
| O=C(O)c1cn2c(n1)CN=C(c1ccccc1F)c1cc(C3CC3)ccc1-2 [Compound 222, 8-cyclopropyl-6-(2-fluorophenyl)-4H-imidazo[1,2-a][1,4]benzodiazepine-2-carboxylic acid] | 7.00 to 7.30 | > 100% | – |
| O=C(O)c1cn2c(n1)CN=C(c1c(F)cccc1F)c1cc(Cl)ccc1-2 [Compound 214, 8-chloro-6-(2,6-difluorophenyl)-4H-imidazo[1,2-a][1,4]benzodiazepine-2-carboxylic acid] | > 7.30 | 50 to 100% | – |
| O=C(O)c1cn2c(n1)CN=C(c1ccccc1F)c1ccc(Cl)cc1-2 [Compound 225, 9-chloro-6-(2-fluorophenyl)-4H-imidazo[1,2-a][1,4]benzodiazepine-2-carboxylic acid] | – | < 50% | – |
| Nc1c(C(=O)O)nc2n1-c1ccc(Cl)cc1C(c1ccccc1F)=NC2 [Compound 249, 3-Amino-12-chloro-9-(2-fluorophenyl)-2,5,8-triazatricyclo[8.4.0.0^2,6]tetradeca-1 (10),3,5,8,11,13-hexaene-4-carboxylic acid] | – | > 100% | – |
| O=C(O)c1cn2c(n1)CN=C(c1ccccc1F)c1cc(Cl)c(F)cc1-2 [Compound 201, 8-chloro-9-fluoro-6-(2-fluorophenyl)-4H-imidazo[1,2-a][1,4]benzodiazepine-2-carboxylic acid] | > 7.30 | > 100% | – |
| Cc1ccccc1C1=NCc2nc(C(=O)O)cn2-c2ccc(Cl)cc21 [Compound 204, 8-chloro-6-(o-tolyl)-4H-imidazo[1,2-a][1,4]benzodiazepine-2-carboxylic acid] | > 7.30 | > 100% | – |
| O=C(O)c1nc2n(c1-c1ccccc1)-c1ccc(Cl)cc1C(c1ccccc1F)=NC2 [Compound 239, 8-chloro-6-(2-fluorophenyl)-1-phenyl-4H-imidazo[1,2-a][1,4]benzodiaze pine-2-carboxylic acid] | < 7.00 | > 100% | – |
| CP(C)(=O)CCCNC(=O)c1cn2c(n1)CN=C(c1ccccc1F)c1cc(Cl)ccc1-2 [Compound 209, 8-chloro-N-(3-dimethylphosphorylpropyl)-6-(2-fluorophenyl)-4H-imidazo[1,2-a][1,4]benzodiazepine-2-carboxamide] | > 7.30 | 50 to 100% | – |
| COCCOCCOCCOCCNC(=O)c1cn2c(n1)CN=C(c1ccccc1F)c1cc(Cl)ccc1-2 [Compound 211, 8-chloro-6-(2-fluorophenyl)-N-[2-[2-[2-(2-methoxyethoxy)ethoxy]ethoxy]ethyl]-4H-imidazo[1,2-a][1,4]benzodiazepine-2-carboxamide] | 7.00 to 7.30 | > 100% | – |
| CS(=N)(=O)CCNC(=O)c1cn2c(n1)CN=C(c1ccccc1F)c1cc(Cl)ccc1-2 (centres unmarked) [Compound 208, 8-chloro-6-(2-fluorophenyl)-N-[2-(methylsulfonimidoyl)ethyl]-4H-imidazo[1,2-a][1,4]benzodiazepine-2-carboxamide] | > 7.30 | 50 to 100% | – |
| Cc1ccc2c(c1)C(c1ccccc1F)=NCc1nc(C(=O)O)cn1-2 [Compound 226, 6-(2-fluorophenyl)-8-methyl-4H-imidazo[1,2-a][1,4]benzodiazepine-2-carboxylic acid] | > 7.30 | > 100% | – |
